Results on six compounds are retold here after patent US10048562B2, “Electrophoretic fluid” (Merck Patent GmbH, priority 2012, dated 2018).

The series is described as follows: Saturation of dye in decane (solubility). The note with it: saturated solution in decane. It counts as physicochemical.
For `CCCCCCCCCCCCCCCCCCN(CCCCCCCCCCCCCCCCCC)c1cc(NC(C)=O)c(/N=N/c2c(C#N)cc([N+](=O)[O-])cc2C#N)cc1OC` [Dye 1], the “Saturation wt % in decane” value was 0.003 wt %.

Take `CCCCCCCCN(CCCCCCCC)c1ccc(/N=N/c2snc(C)c2C#N)c(NC(C)=O)c1` [Dye 4, N-(2-((4-Cyano-3-methylisothiazol-5-yl)diazenyl)-5-(dioctylamino)phenyl)acetamide]: the “Saturation wt % in decane” value came out at 0.19 wt %.

For the compound `CCCCCCCCCCCCCCc1ccc(/N=N/c2c(C)c(C#N)c(=O)n(CC(CC)CCCC)c2O)cc1` (stereo not drawn) [Dye 5, (E)-1-(2-Ethylhexyl)-6-hydroxy-4-methyl-2-oxo-5-((4-tetradecylphenyl)diazenyl)-1,2-dihydropyridine-3-carbonitrile], the “Saturation wt % in decane” value turned out to be 1.03 wt %.

For the compound `CCCCCCCCCCCCCCc1ccc(/N=N/c2c(C)cc(=O)n(CC(CC)CCCC)c2O)cc1` (stereo not drawn) [Dye 6, (E)-1-(2-ethylhexyl)-6-hydroxy-4-methyl-5-((4-tetradecylphenyl)diazenyl)pyridin-2(1H)-one], the “Saturation wt % in decane” value came to 3.72 wt %.

For `CCCCc1ccc(/N=N/c2ccc(N(CCCC)CCCC)cc2)cc1` [Dye 7], the “Saturation wt % in decane” value was determined as 9.95 wt %.

As to `CCCCCCCCN(CCCCCCCC)c1ccc(/N=N/c2ccc([N+](=O)[O-])cc2)c(C)c1` [Dye 8, (E)-3-Methyl-4-((4-nitrophenyl)diazenyl)-N,N-dioctylaniline], the “Saturation wt % in decane” value was determined as 10.50 wt %.
